The structures appear in SMILES notation.

Results on one compound are retold here after patent US10383885B2, “Method for treating or preventing dry eyes” (priority 2015, dated 2019).

The subject of assay [1] is BAC induced dry eye mice. Description: Benzalkonium chloride induced dry eye mice model (2), phenol red thread tear test. The assay is classed as in vivo, Male BALB/c mice. The settings on record: 0.3% BAC day 1 to 7; eye drops 5, 10 μg/ml thrice-daily, day 15 to 19; topical, right eye. As to the method: Benzalkonium Chloride Induced Dry Eye Mice Model (2)
Male BALB/c mice (9 weeks) was treated with thrice-daily (9:00, 13:30, 18:00) topical administration of 5 ul of 0.3% BAC in right eyes, mice was treated with PBS as control group, from day 1 to 7. And compound A (5, 10 μg/ml) was treated with thrice-daily (9:00, 13:30, 18:00) topical administration of 5 ul in right eyes, and PBS as control group, from day 15 to 19.
Phenol red thread tear test was used. The thread is yellow (acidic) and when it comes in contact with tears it changes to a light red color. Forceps were used to insert folded portion of the thread into the palpebral conjunctiva of the eye ⅓ of the distance from the lateral canthus of the lower eye lid. After 15 s, the thread was removed and the entire wet (Red) portion was measured. The phenol red thread test was on 14, 18, 20 day. The results are shown in FIG. 3. *P<0.05, **P<0.01 compared to the control, Student's t-test. Data are expressed as mean±SD (n=5-6).

Assay [2] concerns BAC induced dry eye mice. Description: Benzalkonium chloride induced dry eye mice model (1), phenol red thread tear test. Type of assay: in vivo, Male BALB/c mice. The settings on record: 0.3% BAC day 1 to 7; eye drops 2, 5 or 10 μg/ml three times a day, day 8 to 19; topical, right eye. The protocol: Benzalkonium Chloride Induced Dry Eye Mice Model (1)
Male BALB/c mice (6 weeks) was treated with thrice-daily (9:00, 13:30, 18:00) topical administration of 5 ul of 0.3% BAC in right eyes, mice was treated with PBS as control group, from day 1 to 7. And compound A (2, 5, 10 μg/ml) was treated with thrice-daily (9:00, 13:30, 18:00) topical administration of 5 ul in right eyes, and PBS as control group, from day 8 to 19.
Phenol red thread tear test was used. The thread is yellow (acidic) and when it comes in contact with tears it changes to a light red color. Forceps were used to insert folded portion of the thread into the palpebral conjunctiva of the eye ⅓ of the distance from the lateral canthus of the lower eye lid. After 15 s, the thread was removed and the entire wet (Red) portion was measured. The phenol red thread test was on 7, 11, 15, 19 day. The results are shown in FIG. 2. *P<0.05, **P<0.01 compared to the control, Student's t-test. Data are expressed as mean±SD (n=5-6).

Assay [3] concerns Human Corneal Epithelial (HCE) cells. Description: Benzalkonium chloride cell damage model in HCE cells (trypan blue cell count). The assay is classed as cell-based. The settings on record: HCE cells damaged with 0.0005% benzalkonium chloride for 24 hours, then 0.4, 2, 10 μg/ml compound for 48 hours. The protocol:
Benzalkonium Chloride Cell Damage Model
The Human Corneal Epithelial (HCE) cells were seeded on a 6-well plate 5×10^5 cells with 10% FCS in DMEM/F12 for 24 hours. After cell attachment, medium was removed and changed into 0.0005% Benzalkonium chloride for 24 hours, then washed with PBS and treat with different concentrations 0.4, 2, 10 μg/ml of compound of Formula (I) (compound A) for 48 hours. At the end the cells were trypsinized and centrifuge 1000 rpm for 5 minutes, the supernatant was removed, added 1 ml of DMEM/F12 medium to resuspend the cells, followed by 0.4% trypan blue and the cell culture medium were 1:3 dilution, the number of cells were calculate under a microscope to observe the survivability of different concentrations treatment. The results are shown in FIG. 1. *P<0.05, **P<0.01 compared to the 0 μg/ml compound A group, Student's t-test. Data are expressed as mean±SD (n=3).

The next assay has as its system NGF. Description: Tear NGF protein expression in BAC induced dry eye mice (western blot). Type of assay: in vivo. To be noted: tear of BAC induced dry eye mice; eye drops 2, 5 or 10 μg/ml three times a day for 10 days. The protocol: Tear was collected from right eye of BAC induced dry eye mice by 10 μl PBS wash. Mice treated eyes drop of PBS as control and different concentration Compound A for 10 days. NGF protein was a positive control. 5 μl tear volume used in western blot.
The total protein concentration was determined by 1×Braford assay. To denature, use a loading buffer(7 ml 0.5M Tris pH6.8, 3 ml Glycerol, 1 g 10% SDS, 0.93 g DTT, […] 0.05% bromophenol blue, 10 ml), and boil the mixture at 95-100° C. for 5 minutes. Total protein was loaded 20-40 μg per mini-gel (12% SDS-polyacrylamide gel) well for electrophoresis. Then transfer the proteins into polyvinylidene difluoride membrane and blocking the membrane with 5-10% nonfat dried milk in TTBS. The membrane was incubated with the primary antibody overnight at 4° C. by shaking. Wash the membrane several times in TTBS to remove residual primary antibody. And the membrane was incubated with secondary antibody for 2 hours at room temperature.
The protein levels were determined by chemiluminescene detection system and analysis by Imagequant software. The results are shown in FIG. 4. *P<0.05, **P<0.01, ***P<0.001 compared to the control, Student's t-test. Data are expressed as mean±SD (n=4).
(In western blotting, separated proteins are transferred to a membrane and probed.)

On to `OC[C@H]1O[C@@H](Oc2c(O)cc(O)cc2/C=C/c2ccc(O)cc2)[C@H](O)[C@@H](O)[C@@H]1O` [compound of Formula (I), 2,3,5,4′-tetrahydroxystilbene 2-O-β-D-glucopyranoside], for which the tear secretion entry was “improves tear secretion” in the assay with BAC induced dry eye mice [1] and “restored tear secretion” in the assay on BAC induced dry eye mice [2]. The “cell viability after BAC damage” value in assay [3] is “increased cell viability”. Moreover, in the assay on NGF, the NGF expression level result was “increased the NGF gene expression level”.
